Measured values as given in article PMC2699512 (Nucleic Acids Research, 2009).

Assays:
[1] = target: T1, yeast RNA triphosphatase (Cet1; S. cerevisiae RTPase) (Saccharomyces cerevisiae, UniProt O13297); assay: inhibition of [γ-32P]GTP hydrolysis, TLC of released phosphate; assay type: biochemical
T1 sequence (O13297 2-549): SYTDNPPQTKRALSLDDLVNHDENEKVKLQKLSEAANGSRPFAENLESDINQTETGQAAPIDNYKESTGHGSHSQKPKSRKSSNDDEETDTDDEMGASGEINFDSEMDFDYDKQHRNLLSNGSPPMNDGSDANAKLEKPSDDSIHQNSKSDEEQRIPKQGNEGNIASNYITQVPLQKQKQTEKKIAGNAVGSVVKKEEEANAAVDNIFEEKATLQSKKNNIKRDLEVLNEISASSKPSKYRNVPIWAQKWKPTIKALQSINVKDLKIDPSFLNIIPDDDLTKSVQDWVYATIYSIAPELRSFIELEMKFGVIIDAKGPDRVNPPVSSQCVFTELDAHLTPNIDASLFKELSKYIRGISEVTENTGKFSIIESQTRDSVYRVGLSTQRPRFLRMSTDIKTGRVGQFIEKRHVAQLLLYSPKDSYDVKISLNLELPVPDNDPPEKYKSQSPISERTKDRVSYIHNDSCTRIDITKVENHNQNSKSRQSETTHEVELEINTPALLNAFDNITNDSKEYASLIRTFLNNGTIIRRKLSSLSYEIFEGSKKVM

[2] = target: T1, yeast RNA triphosphatase (Cet1; S. cerevisiae RTPase); assay: GTPase inhibition kinetics, TLC; assay type: biochemical

SMILES	IC50 [1] [µM]	Ki [2] [µM]
O=P(O)(O)OP(=O)(O)OP(=O)(O)O [Tripoly-PO4]	0.4	
Nc1nc2c(ncn2[C@H]2CC[C@@H](COP(=O)(O)OP(=O)(O)OP(=O)(O)O)O2)c(=O)[nH]1 [A-12]	6.1	1.1
Cn1c(N)nc2c(ncn2[C@@H]2O[C@H](COP(=O)(O)OP(=O)(O)OP(=O)(O)O)[C@@H](O)[C@H]2O)c1=O [A-4]	8.1	1.5
Nc1nc2c(ncn2[C@@H]2O[C@H](COP(=O)(O)OP(=O)(O)OP(=O)(O)O)[C@@H](O)[C@H]2O)c(=O)[nH]1 [GTP]	87	16
O=P(O)(O)OP(=O)(O)OP(=O)(O)OC[C@H]1O[C@@H](n2cnc3c(Cl)ncnc32)[C@H](O)[C@@H]1O [A-11]	2	0.4
COc1nc(N)nc2c1ncn2[C@@H]1O[C@H](COP(=O)(O)OP(=O)(O)OP(=O)(O)O)[C@@H](O)[C@H]1O [A-5]	150	27
O=P(O)(O)OP(=O)(O)OP(=O)(O)OC[C@H]1O[C@@H](n2cnc3c(S)ncnc32)[C@H](O)[C@@H]1O [A-18]	8.1	
Nc1nc2c(ncn2[C@@H]2O[C@H](COP(=O)(O)OP(=O)(O)OP(=O)(O)O)[C@@H](O)[C@H]2O)c(=S)[nH]1 [A-9]	16	2.9
O=c1[nH]c(=O)c2ncn([C@@H]3O[C@H](COP(=O)(O)OP(=O)(O)OP(=O)(O)O)[C@@H](O)[C@H]3O)c2[nH]1 [A-8]	10	1.8
Nc1nc(Cl)c2ncn([C@@H]3O[C@H](COP(=O)(O)OP(=O)(O)OP(=O)(O)O)[C@@H](O)[C@H]3O)c2n1 [A-6]	53	9.6
Nc1nc2c(ncn2[C@H]2C[C@H](O)[C@@H](COP(=O)(O)OP(=O)(O)OP(=O)(O)O)O2)c(=O)[nH]1 [dGTP]	76	14
